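At the GI50, growth is halved. TGI marks complete inhibition of growth.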
How the values were obtained:
Assay in all cases: growth of human tumour cells (NCI), 384-well format
[1] = system: HL-60(TB) leukemia
[2] = system: SK-MEL-2 melanoma
[3] = system: CAKI-1 renal
[4] = system: NCI-H226 lung
[5] = system: OVCAR-3 ovarian
[6] = system: SF-268 CNS
[7] = system: SK-OV-3 ovarian
[8] = system: SK-MEL-5 melanoma
[9] = system: MDA-MB-435 melanoma
[10] = system: HT29 colon
[11] = system: TK-10 renal
[12] = system: SK-MEL-28 melanoma
[13] = system: DU-145 prostate

## C=CC(=O)N1CCC(CNc2ncnc(N)c2-c2ccc(Oc3ccccc3)cc2)CC1
[1]
  GI50: 11.8 µM
  TGI: 24 µM
[2]
  GI50: 20.5 µM
  TGI: 36.9 µM
[3]
  GI50: 16.9 µM
  TGI: 43.1 µM
[4]
  GI50: 15.6 µM
  TGI: 36 µM
[5]
  GI50: 16.1 µM
  TGI: 30.5 µM
[6]
  GI50: 17 µM
  TGI: 37.9 µM
[7]
  GI50: 16.2 µM
  TGI: 44.9 µM
[8]
  GI50: 16.1 µM
  TGI: 30.6 µM
[9]
  GI50: 28.7 µM
  TGI: > 73.3 µM
[10]
  GI50: 25 µM
  TGI: 63.1 µM
[11]
  GI50: 18.3 µM
  TGI: 36.2 µM
[12]
  GI50: 36.4 µM
  TGI: > 86.9 µM
[13]
  GI50: 19.5 µM
  TGI: 46.4 µM

Source: PubChem BioAssay (NCI)
